Patent US4684664A, “Derivatives of β-(4-isocyano-1,2,3,4-diepoxycyclopentyl) acrylic acid” (Kureha Kagaku Kogyo Kabushiki Kaisha, priority 1984, dated 1987)
Converted amounts (≈) assume the structure as drawn.

Legend:
Format in all cases: cell-based
[1] = tested on: Pseudomonas aeruginosa IFO 3445; assay: Antibacterial activity, agar-dilution MIC, organism No. 15; conditions: Pseudomonas aeruginosa, IFO3445; Organism No. 15, bouillon-agar; read-out: Minimum Inhibitory Concentration
How it was run: (§1)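 Specimen is incorporated into bouillon-agar medium at graded levels and the organisms are tested on these plates. The lowest level preventing growth is taken as the MIC (μg/ml of medium).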

[2] = tested on: Salmonella typhi 901; assay: Antibacterial activity, agar-dilution MIC, organism No. 9; conditions: Salmonella enterica, TYPHI, read-out: Minimum Inhibitory Concentration
How it was run: as §1

[3] = tested on: Micrococcus luteus ATCC 9341; assay: Antibacterial activity, agar-dilution MIC, organism No. 25; conditions: Micrococcus luteus, ATCC9341; Organism No. 25, bouillon-agar; read-out: Minimum Inhibitory Concentration
How it was run: as §1

[4] = tested on: Proteus vulgaris OX-19; assay: Antibacterial activity, agar-dilution MIC, organism No. 20; conditions: Proteus vulgaris, OX19; Organism No. 20, bouillon-agar; read-out: Minimum Inhibitory Concentration
How it was run: as §1

[5] = tested on: Pseudomonas aeruginosa PAO 1; assay: Antibacterial activity, agar-dilution MIC, organism No. 17; conditions: Pseudomonas aeruginosa, PAO1; Organism No. 17, bouillon-agar; read-out: Minimum Inhibitory Concentration
How it was run: as §1

[6] = tested on: Salmonella paratyphi-A 1015; assay: Antibacterial activity, agar-dilution MIC, organism No. 10; conditions: Salmonella enterica, PARATYPHI, read-out: Minimum Inhibitory Concentration
How it was run: as §1

[7] = tested on: Salmonella shottmuelleri 8006; assay: Antibacterial activity, agar-dilution MIC, organism No. 11; conditions: Salmonella, 8006; Organism No. 11, bouillon-agar; read-out: Minimum Inhibitory Concentration
How it was run: as §1

[8] = tested on: Streptococcus pyogenes IFO 3340; assay: Antibacterial activity, agar-dilution MIC, organism No. 26; conditions: Streptococcus pyogenes, IFO3340; Organism No. 26, bouillon-agar; read-out: Minimum Inhibitory Concentration
How it was run: as §1

[9] = tested on: Enterobacter aerogenes ATCC 13048; assay: Antibacterial activity, agar-dilution MIC, organism No. 23; conditions: Klebsiella aerogenes, ATCC13048; Organism No. 23, bouillon-agar; read-out: Minimum Inhibitory Concentration
How it was run: as §1

[10] = tested on: Mycoplasma pneumoniae IID817; assay: Antimycoplasmal activity, MIC by phenol red colour change, organism No. 28; conditions: Mycoplasma, IID817; Organism No. 28, PPLO broth + 1% glucose, 37° C.; read-out: Minimum Inhibitory Concentration (MIC)
Description: Mycoplasma pneumoniae IID817 was used as the test microorganism in a culture medium prepared by adding 1% of glucose to "PPLO broth (manufactured by Difco Co.) liquid culture medium" at 37° C. with phenol red as an indicator, thereby culturing the test microorganism.

[11] = tested on: Staphylococcus aureus MS 353; assay: Antibacterial activity, agar-dilution MIC, organism No. 3; conditions: Staphylococcus aureus, MS353; Organism No. 3, bouillon-agar; read-out: Minimum Inhibitory Concentration
How it was run: as §1

[12] = tested on: Escherichia coli NIHJ-JC-2; assay: Antibacterial activity, agar-dilution MIC, organism No. 5; conditions: Escherichia coli, NIHJJC2; Organism No. 5, bouillon-agar; read-out: Minimum Inhibitory Concentration
How it was run: as §1

[13] = tested on: Pseudomonas aeruginosa NCTC 10490; assay: Antibacterial activity, agar-dilution MIC, organism No. 16; conditions: Pseudomonas aeruginosa, NCTC10490; Organism No. 16, bouillon-agar; read-out: Minimum Inhibitory Concentration
How it was run: as §1

[14] = tested on: Streptococcus pyogenes Cook; assay: Antibacterial activity, agar-dilution MIC, organism No. 4; conditions: Streptococcus pyogenes; Organism No. 4, bouillon-agar; read-out: Minimum Inhibitory Concentration
How it was run: as §1

[15] = tested on: Escherichia coli K12 C600 IAM 1264; assay: Antibacterial activity, agar-dilution MIC, organism No. 6; conditions: Escherichia coli, IAM1264; Organism No. 6, bouillon-agar; read-out: Minimum Inhibitory Concentration
How it was run: as §1

[16] = tested on: Proteus morganii IFO 3848; assay: Antibacterial activity, agar-dilution MIC, organism No. 18; conditions: Morganella morganii, IFO3848; Organism No. 18, bouillon-agar; read-out: Minimum Inhibitory Concentration
How it was run: as §1

[17] = tested on: Aspergillus niger IFO 6342; assay: Antifungal activity, agar-dilution MIC, organism No. 30; conditions: Aspergillus niger, IFO6342; Organism No. 30, bouillon-agar; read-out: Minimum Inhibitory Concentration
How it was run: as §1

[18] = tested on: Salmonella typhimurium IID 971; assay: Antibacterial activity, agar-dilution MIC, organism No. 8; conditions: Salmonella enterica; Organism No. 8, bouillon-agar; read-out: Minimum Inhibitory Concentration
How it was run: as §1

[19] = tested on: Staphylococcus aureus Terajima; assay: Antibacterial activity, agar-dilution MIC, organism No. 2; conditions: Staphylococcus aureus; Organism No. 2, bouillon-agar; read-out: Minimum Inhibitory Concentration
How it was run: as §1

[20] = tested on: Salmonella enteritidis G 14; assay: Antibacterial activity, agar-dilution MIC, organism No. 12; conditions: Salmonella enterica, ENTERITIDIS; Organism No. 12, bouillon-agar; read-out: Minimum Inhibitory Concentration
How it was run: as §1

[21] = tested on: Proteus mirabilis IFO 3849; assay: Antibacterial activity, agar-dilution MIC, organism No. 19; conditions: Proteus mirabilis, IFO3849; Organism No. 19, bouillon-agar; read-out: Minimum Inhibitory Concentration
How it was run: as §1

[22] = tested on: Streptococcus faecium IFO 3826; assay: Antibacterial activity, agar-dilution MIC, organism No. 27; conditions: Enterococcus faecium, IFO3826; Organism No. 27, bouillon-agar; read-out: Minimum Inhibitory Concentration
How it was run: as §1

[23] = tested on: Klebsiella pneumoniae PCI-602; assay: Antibacterial activity, agar-dilution MIC, organism No. 7; conditions: Klebsiella pneumoniae, PCI602; Organism No. 7, bouillon-agar; read-out: Minimum Inhibitory Concentration
How it was run: as §1

[24] = tested on: Bacillus subtilis ATCC 6633; assay: Antibacterial activity, agar-dilution MIC, organism No. 14; conditions: Bacillus subtilis, ATCC6633; Organism No. 14, bouillon-agar; read-out: Minimum Inhibitory Concentration
How it was run: as §1

[25] = tested on: Candida albicans IAM 4905; assay: Antifungal activity, agar-dilution MIC, organism No. 29; conditions: Candida albicans, IAM4905; Organism No. 29, bouillon-agar; read-out: Minimum Inhibitory Concentration
How it was run: as §1

[26] = tested on: Staphylococcus aureus FDA 209PJc-1; assay: Antibacterial activity, agar-dilution MIC, organism No. 1; conditions: Staphylococcus aureus, FDA209PJC1; Organism No. 1, bouillon-agar; read-out: Minimum Inhibitory Concentration
How it was run: as §1

[27] = tested on: Proteus rettgeri IFO 3850; assay: Antibacterial activity, agar-dilution MIC, organism No. 22; conditions: Providencia rettgeri, IFO3850; Organism No. 22, bouillon-agar; read-out: Minimum Inhibitory Concentration
How it was run: as §1

[28] = tested on: Enterobacter cloacae 963; assay: Antibacterial activity, agar-dilution MIC, organism No. 24; conditions: Enterobacter cloacae, 963; Organism No. 24, bouillon-agar; read-out: Minimum Inhibitory Concentration
How it was run: as §1

[29] = tested on: Proteus vulgaris HX-19; assay: Antibacterial activity, agar-dilution MIC, organism No. 21; conditions: Proteus vulgaris, HX19; Organism No. 21, bouillon-agar; read-out: Minimum Inhibitory Concentration
How it was run: as §1

SMILES	MIC [1] [µg/mL]	MIC [2] [µg/mL]	MIC [3] [µg/mL]	MIC [4] [µg/mL]	MIC [5] [µg/mL]	MIC [6] [µg/mL]	MIC [7] [µg/mL]	MIC [8] [µg/mL]	MIC [9] [µg/mL]	MIC [10] [µg/mL]	MIC [11] [µg/mL]	MIC [12] [µg/mL]	MIC [13] [µg/mL]	MIC [14] [µg/mL]	MIC [15] [µg/mL]	MIC [16] [µg/mL]	MIC [17] [µg/mL]	MIC [18] [µg/mL]	MIC [19] [µg/mL]	MIC [20] [µg/mL]	further results
[C-]#[N+]C12CC3(/C=C/C(=O)Nc4ccccc4C)OC3C1O2 (stereo not shown) [compound 39]	> 200	25 (≈ 88.6 µM)	< 0.05	6.25 (≈ 22.1 µM)	> 200	12.5 (≈ 44.3 µM)	3.13 (≈ 11.1 µM)	25 (≈ 88.6 µM)	> 200	< 0.2	1.56 (≈ 5.53 µM)	> 200	> 200	100 (≈ 354 µM)	> 200	100 (≈ 354 µM)	1.56 (≈ 5.53 µM)	> 200	3.13 (≈ 11.1 µM)	50 (≈ 177 µM)	MIC [21]: > 200 µg/mL; MIC [22]: 200 µg/mL (≈ 708 µM); MIC [23]: 1.56 µg/mL (≈ 5.53 µM); MIC [24]: > 200 µg/mL; MIC [25]: 0.39 µg/mL (≈ 1.38 µM); MIC [26]: 0.78 µg/mL (≈ 2.76 µM); MIC [27]: > 200 µg/mL; MIC [28]: 200 µg/mL (≈ 708 µM); MIC [29]: < 0.05 µg/mL
[C-]#[N+]C12CC3(/C=C/C(=O)Nc4ccc(Cl)cc4)OC3C1O2 (stereo not shown) [compound 40]	> 200	0.39 (≈ 1.29 µM)	< 0.05	0.1 (≈ 0.33 µM)	> 200	0.1 (≈ 0.33 µM)	0.1 (≈ 0.33 µM)	0.39 (≈ 1.29 µM)	> 200	< 0.2	< 0.05	> 200	> 200	200 (≈ 661 µM)	> 200	3.13 (≈ 10.3 µM)	1.56 (≈ 5.15 µM)	12.5 (≈ 41.3 µM)	0.1 (≈ 0.33 µM)	3.13 (≈ 10.3 µM)	MIC [21]: > 200 µg/mL; MIC [22]: > 200 µg/mL; MIC [23]: < 0.05 µg/mL; MIC [24]: 6.25 µg/mL (≈ 20.6 µM); MIC [25]: 0.39 µg/mL (≈ 1.29 µM); MIC [26]: < 0.05 µg/mL; MIC [27]: 6.25 µg/mL (≈ 20.6 µM); MIC [28]: 200 µg/mL (≈ 661 µM); MIC [29]: < 0.05 µg/mL
[C-]#[N+]C12CC3(/C=C/C(=O)Nc4cccc(Cl)c4)OC3C1O2 (stereo not shown) [compound 41]	> 200	3.13 (≈ 10.3 µM)	< 0.05	0.78 (≈ 2.58 µM)	> 200	0.78 (≈ 2.58 µM)	0.2 (≈ 0.661 µM)	0.39 (≈ 1.29 µM)	> 200	< 0.2	0.1 (≈ 0.33 µM)	> 200	> 200	> 200	200 (≈ 661 µM)	0.1 (≈ 0.33 µM)	1.56 (≈ 5.15 µM)	3.13 (≈ 10.3 µM)	0.39 (≈ 1.29 µM)	3.13 (≈ 10.3 µM)	MIC [21]: > 200 µg/mL; MIC [22]: 3.13 µg/mL (≈ 10.3 µM); MIC [23]: < 0.05 µg/mL; MIC [24]: 1.56 µg/mL (≈ 5.15 µM); MIC [25]: 0.8 µg/mL (≈ 2.64 µM); MIC [26]: 0.2 µg/mL (≈ 0.661 µM); MIC [27]: 3.13 µg/mL (≈ 10.3 µM); MIC [28]: 50 µg/mL (≈ 165 µM); MIC [29]: < 0.05 µg/mL
[C-]#[N+]C12CC3(/C=C/C(=O)Nc4ccccc4Cl)OC3C1O2 (stereo not shown) [compound 42]	> 200	12.5 (≈ 41.3 µM)	< 0.05	3.13 (≈ 10.3 µM)	> 200	6.25 (≈ 20.6 µM)	3.13 (≈ 10.3 µM)	1.56 (≈ 5.15 µM)	> 200	< 0.2	0.39 (≈ 1.29 µM)	> 200	> 200	> 200	> 200	3.13 (≈ 10.3 µM)	3.13 (≈ 10.3 µM)	25 (≈ 82.6 µM)	1.56 (≈ 5.15 µM)	25 (≈ 82.6 µM)	MIC [21]: > 200 µg/mL; MIC [22]: 25 µg/mL (≈ 82.6 µM); MIC [23]: 0.78 µg/mL (≈ 2.58 µM); MIC [24]: 6.25 µg/mL (≈ 20.6 µM); MIC [25]: 1.56 µg/mL (≈ 5.15 µM); MIC [26]: 0.39 µg/mL (≈ 1.29 µM); MIC [27]: > 200 µg/mL; MIC [28]: > 200 µg/mL; MIC [29]: 0.1 µg/mL (≈ 0.33 µM)
[C-]#[N+]C12CC3(/C=C/C(=O)Nc4ccc(F)cc4)OC3C1O2 (stereo not shown) [compound 43]	> 200	1.56 (≈ 5.45 µM)	0.2 (≈ 0.699 µM)	0.39 (≈ 1.36 µM)	> 200	0.78 (≈ 2.72 µM)	0.78 (≈ 2.72 µM)	3.13 (≈ 10.9 µM)	> 200	< 0.2	1.56 (≈ 5.45 µM)	6.25 (≈ 21.8 µM)	> 200	25 (≈ 87.3 µM)	25 (≈ 87.3 µM)	0.39 (≈ 1.36 µM)	1.56 (≈ 5.45 µM)	6.25 (≈ 21.8 µM)	3.13 (≈ 10.9 µM)	3.13 (≈ 10.9 µM)	MIC [21]: 12.5 µg/mL (≈ 43.7 µM); MIC [22]: 12.5 µg/mL (≈ 43.7 µM); MIC [23]: 0.78 µg/mL (≈ 2.72 µM); MIC [24]: 6.25 µg/mL (≈ 21.8 µM); MIC [25]: 0.39 µg/mL (≈ 1.36 µM); MIC [26]: 0.78 µg/mL (≈ 2.72 µM); MIC [27]: 1.56 µg/mL (≈ 5.45 µM); MIC [28]: 12.5 µg/mL (≈ 43.7 µM); MIC [29]: 0.39 µg/mL (≈ 1.36 µM)
